Experimental data published in US10041933B2, “Modulators of the interaction of astrin and raptor, and uses thereof in cancer therapy” (ALBERT-LUDWIGS-UNIVERSITÄT FREIBURG, priority 2013, dated 2018).

Columns and labels:
[1] = test system: oral squamous carcinoma cell lines; settings: cited from earlier work
[2] = test system: p70-S6K1-pT389 (mTORC1 substrate); experiment: Immunoblot of mTORC1 substrate p70-S6K1-pT389 after insulin/aa induction; type: cell-based; settings: astrin knockdown, insulin and aa 10 minutes; Rapamycin 100 nM, PP242 250 nM
Method: Experiments were performed in HeLa α Kyoto cells, and BT474, MDA-MB-231, MDA-MB-453, T-47D, MCF-7 breast cancer cell lines. […] Cultivation of breast cancer cell lines T-47D, BT474, MDA-MB-231 and MDA-MB-453 was done in the following media: RPMI (PAA, Pasching, Austria) supplemented with 100 nM insulin. MCF7 cells were cultivated in RPMI (PAA, Pasching, Austria). Insulin/aa induction was done as described (Sonntag et al., 2012). Prior to stress induction with 500 μM Arsenite or 2 mM H2O2, cells were starved for 16 h in DMEM without Glucose and fetal calf serum (PAA, Pasching, Austria) supplemented with 1.5% L-glutamine.
Stress granules were analysed after 30 min. stress induction. Apoptosis was analysed after 1-3 hours stress induction. Inhibitors were obtained from Calbiochem, Merck KGaA, Darmstadt, Germany and Sigma Aldrich, St. Louis, USA; dissolved in DMSO, and applied 30 min. prior to all induction regimens, at the following concentrations: Rapamycin (100 nM), PP242 (250 nM), Wortmannin (200 nM), Cycloheximide (2 μg/mL); HeLa cells were synchronized with Nocodazole (400 ng/mL) and subsequent mitotic shake off at G2/M, and released as described (Thein, K. H., Kleylein-Sohn, J., Nigg, E. A., and Gruneberg, U. (2007). Astrin is required for the maintenance of sister chromatid cohesion and centrosome integrity. J Cell Biol 178, 345-354). […]

Structure (SMILES): CCCCCCCC/C=C\CCCCCCCCCCCCOP(=O)([O-])OCC[N+](C)(C)C [Erufosine]
- cytotoxicity [1]: dose-dependent cytotoxicity in all cell lines

Structure (SMILES): CC(C)n1nc(-c2cc3cc(O)ccc3[nH]2)c2c(N)ncnc21 [PP242]
- p70-S6K1-pT389 in astrin deficient cells [2]: potently inhibited
